Laboratory results: patent US11957728B2, “Compositions for targeting receptor for advanced glycation end-products (RAGE) in a chronic inflammatory condition” (Sami-Sabinsa Group Limited, priority 2020, dated 2024)
Values belong to the compound of their own block, whether it stands above or below them.

How the values were obtained:
glycation = assay: Anti-glycation activity of curcuminoids at 24 and 72 hrs (320/405); format: biochemical
[1] = target: DPP4 (Dipeptidyl-peptidase 4) (Homo sapiens, UniProt P27487); assay: Inhibition of DPP4 enzyme; format: biochemical; set-up: Anti-DPP4 activity: unit of the concentration uncertain
IL-6 = IL-6 expression in pancreas of HFFD diabetic rats (qRT-PCR); format: in vivo, Wistar Rats; conditions: Diabetic 1.60 ± 0.09
Excerpt: (§1) Wistar Rats (150 g) were given High fat and fructose diet (HFFD) to induced type 2 diabetes (T2D). HFFD induces the development of diabetes associated with long term metabolic disorders including Fasting hyperglycemia, pre- and post-prandial hyperinsulinemia, Insulin resistance, Glucose intolerance and Dyslipidemia. Animals in HFFD show complications associated with T2D such as hepatic steatosis complicated by fibrosis, inflammation, hyperleptinemia and endothelial dysfunction. Rats were co administered with AC3 (100 mg/kg), BAP (200 μg/kg) BAP+AC3 (200 μg+100 mg/kg) BAP+AC3 (50 μg+100 mg/kg) and Metformin as positive control at 100 mg/kg along with HFFD for 90 days (Table 4). The organs were collected at the end of the experiment to evaluate the effect of the supplements on RAGE expression, oxidative stress and inflammation. […] from pancreas sample using the trizol method. […] First-strand cDNA was prepared from RNA samples using oligo dT primers and Superscript III reverse transcriptase (cDNA synthesis kit, Invitrogen™) Quantitative real-time PCR (qRT-PCR) was performed with SYBR Green I fluorescent dye using Light cycler 96 according to the manufacturer's instructions (Light Cycler® FastStart DNA Master SYBR Green I, Roche). […] The gene expression of the target gene in each test sample was determined by relative quantification using the comparative Ct (ΔΔCt) method.

RAGE = RAGE expression in pancreas of HFFD-induced diabetic rats (qRT-PCR); format: in vivo, Wistar Rats
Excerpt: as §1

IL-1β = IL-1β expression in pancreas of HFFD diabetic rats (qRT-PCR); format: in vivo, Wistar Rats; conditions: Diabetic 1.66 ± 0.04
Excerpt: as §1

TNF-α = TNF-α expression in pancreas of HFFD diabetic rats (qRT-PCR); format: in vivo, Wistar Rats; conditions: Diabetic 1.73 ± 0.34
Excerpt: as §1

[2] = system: reactive oxygen species (ROS); assay: Oxidative stress in tissue homogenates (DCFDA fluorescence) of HFFD diabetic rats; format: in vivo, Wistar Rats; conditions: for Relative Fluorescence Intensity, Average: Normal 6.5, Diabetic 23.8
Excerpt: Wistar Rats (150 g) were given High fat and fructose diet (HFFD) to induced type 2 diabetes (T2D). HFFD induces the development of diabetes associated with long term metabolic disorders including Fasting hyperglycemia, pre- and post-prandial hyperinsulinemia, Insulin resistance, Glucose intolerance and Dyslipidemia. Animals in HFFD show complications associated with T2D such as hepatic steatosis complicated by fibrosis, inflammation, hyperleptinemia and endothelial dysfunction.
Rats were co administered with AC3 (100 mg/kg), BAP (200 μg/kg) BAP+AC3 (200 μg+100 mg/kg) BAP+AC3 (50 μg+100 mg/kg) and Metformin as positive control at 100 mg/kg along with HFFD for 90 days (Table 4). The organs were collected at the end of the experiment to evaluate the effect of the supplements on RAGE expression, oxidative stress and inflammation.
The level of oxidative stress in tissue was estimated by using 20,70-dichlorofluorescin diacetate (DCFDA), a fluorogenic dye that measures hydroxyl, peroxyl, and other reactive oxygen species (ROS) activity. Briefly, an aliquot of the tissue homogenates (10 μL) were mixed with 150 μL ethanol solution of DCFDA to the final concentration of 10 mM. After incubation for 30 min at room temperature in dark, the fluorescence was measured with the excitation and emission wavelengths of 488 and 520 nm. Higher the fluorescence, higher is the oxidative stress. oxidative stress is decreased in the subject, and brought about by curcuminoids. BAP, or their combination.

[3] = system: inflammatory marker (TNF-α, IL6, IL-1β); assay: Inflammatory cytokine expression in pancreas of HFFD diabetic rats, overall statements; format: in vivo, Wistar Rats; conditions: BAP 200 ug/kg; AC3 100 mg/kg; combinations; p<0.05
Excerpt: as §1

[4] = system: formation of AGE (bovine serum albumin + D-Ribose); assay: In vitro anti-glycation assay (BSA + D-Ribose, fluorescence Ex/Em 390/460 nm, 24 h); format: biochemical
Excerpt: Glycation is the non-enzymatic glycosylation reaction involving amino groups of proteins, lipids, or nucleic acids with sugar aldehyde or keto groups resulting in the formation of advanced glycosylation end-products (AGE) (Yamagishi et al. Pathologic role of dietary advanced glycation end products in cardiometabolic disorders, and therapeutic intervention, Nutrition, 32(2), 157-65 (2016)). The reactive carbonyls of sugars combine with amino groups of a protein, lipid or nucleic acid generating Schiff bases, which rearrange to Amadori products. In a series of slow reactions, the Amadori reactions, Schiff base and Maillard reactions, ultimately form AGE. Although glycation is slow in vivo, the glycation products have long-lasting effects. The effect of test substances on preventing the formation of AGE was evaluated in vitro
Anti-glycation activity was evaluated as described earlier (Sero et al. Tuning a 96-Well Microtiter Plate Fluorescence-Based Assay to Identify AGE Inhibitors in Crude Plant Extracts) Briefly, 10 μl of various sample concentrations were added to 40 μl of 25 mg/ml bovine serum albumin and 50 μl of 150 mg/ml D-Ribose in a 96 well black microplate. D-Ribose with buffer served as control. The plate containing the mixture was incubated for 24 h at 37° C. The advanced glycation product was detected by measuring the fluorescence intensity at Ex/Em of 390/460 nm by using BMG FLUOstar Optima Microplate reader.

Sequence of DPP4 (Dipeptidyl-peptidase 4) (P27487 whole entry, species assumed): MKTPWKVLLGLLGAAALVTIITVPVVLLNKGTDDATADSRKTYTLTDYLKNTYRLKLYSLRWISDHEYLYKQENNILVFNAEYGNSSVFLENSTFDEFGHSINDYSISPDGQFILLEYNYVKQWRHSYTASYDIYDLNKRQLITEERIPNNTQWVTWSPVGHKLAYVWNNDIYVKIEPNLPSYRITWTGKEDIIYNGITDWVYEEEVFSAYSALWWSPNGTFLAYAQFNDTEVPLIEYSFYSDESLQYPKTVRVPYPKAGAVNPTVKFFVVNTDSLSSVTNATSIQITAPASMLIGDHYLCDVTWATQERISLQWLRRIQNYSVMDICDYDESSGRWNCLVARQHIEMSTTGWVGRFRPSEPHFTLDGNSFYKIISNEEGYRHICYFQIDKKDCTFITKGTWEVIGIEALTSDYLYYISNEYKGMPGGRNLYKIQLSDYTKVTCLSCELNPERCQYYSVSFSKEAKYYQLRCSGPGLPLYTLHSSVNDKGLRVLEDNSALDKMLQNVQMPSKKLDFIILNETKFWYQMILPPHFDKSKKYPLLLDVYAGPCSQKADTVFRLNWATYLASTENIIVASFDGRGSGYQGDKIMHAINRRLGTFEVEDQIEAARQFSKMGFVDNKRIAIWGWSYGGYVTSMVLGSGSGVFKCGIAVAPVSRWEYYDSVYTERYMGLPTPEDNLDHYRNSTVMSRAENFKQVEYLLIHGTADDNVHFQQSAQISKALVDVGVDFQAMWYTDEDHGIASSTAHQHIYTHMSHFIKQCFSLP

Anti-DPP4 activity ([1]; Conc 12.5 (unit uncertain)): 14.11
Anti-DPP4 activity ([1]; Conc 25 (unit uncertain)): 48.88
Anti-DPP4 activity ([1]; Conc 50 (unit uncertain)): 70.29
Effectiveness against DPP4 (comparison in words) ([1]; Table 11): as effective as AC3
SMILES: COc1cc(/C=C/C(=O)CC(=O)/C=C/c2ccc(O)c(OC)c2)ccc1O [Curcumin, curcumin]
Anti-Glycation activity (glycation; 24 hrs (320/405), Conc 0.3125 mg/mL): 29.67
Anti-Glycation activity (glycation; 24 hrs (320/405), Conc 0.625 mg/mL): 35.90
Anti-Glycation activity (glycation; 72 hrs (320/405), Conc 0.625 mg/mL): 44.42

SMILES: CN(C)C(=N)N=C(N)N [Metformin]
Expression level of IL-6 (Normal = 1) (IL-6; Metformin 100 mg/kg): 1.04 ± 0.12
Reduction of RAGE expression (RAGE; metformin 100 mg/kg, pancreas): 6.9%
Expression level of IL-1β (Normal = 1) (IL-1β; Metformin 100 mg/kg): 0.89 ± 0.05
Expression level of TNF-α (Normal = 1) (TNF-α; Metformin 100 mg/kg): 0.91 ± 0.22
Relative Fluorescence Intensity, Average ([2]; Metformin 100 mg/kg): 28.94

SMILES: CCCCCCCCCCCCCCCC(=O)O[C@H]1CC[C@]2(C)[C@H]3CC=C4[C@@H]5CC(C)(C)CC[C@]5(C)CC[C@@]4(C)[C@]3(C)CC[C@H]2C1(C)C [BAP, β-amyrin palmitate]
Expression level of IL-6 (Normal = 1) (IL-6; BAP 200 μg/kg): 2.09 ± 0.08
Reduction of inflammatory cytokine expression in pancreas (in words) [3]: not effective
Effect on pancreatic RAGE expression (RAGE; BAP 200 μg/kg, 90 days with HFFD, vs diabetic rats): no effect
Expression level of IL-1β (Normal = 1) (IL-1β; BAP 200 μg/kg): 1.62 ± 0.11
Expression level of TNF-α (Normal = 1) (TNF-α; BAP 200 μg/kg): 2.01 ± 0.31
Percentage Inhibition ([4]; BAP 1 μg/mL): 0%
Percentage Inhibition ([4]; BAP 2 μg/mL): 11.92%
Percentage Inhibition ([4]; BAP 4 μg/mL): 9.67%
Inhibition of AGE formation (in words) ([4]; in vitro, BSA + ribose): poor inhibitor of AGE formation
Relative Fluorescence Intensity, Average ([2]; BAP 200 μg/kg): 11.5
Decrease of oxidative stress from the diabetic control ([2]; HFFD rats, 90 days): 2 fold

SMILES: COc1cc(/C=C/C(O)=C/C(=O)/C=C/c2ccc(O)cc2)ccc1O [DMC, demethoxycurcumin]
Anti-DPP4 activity ([1]; Conc 12.5 (unit uncertain)): 23.56
Anti-DPP4 activity ([1]; Conc 25 (unit uncertain)): 39.86
Anti-DPP4 activity ([1]; Conc 50 (unit uncertain)): 62.60

Anti-DPP4 activity ([1]; Conc 12.5 (unit uncertain)): 43.58
Anti-DPP4 activity ([1]; Conc 25 (unit uncertain)): 56.07
Anti-DPP4 activity ([1]; Conc 50 (unit uncertain)): 58.55
SMILES: O=C(/C=C/c1ccc(O)cc1)CC(=O)/C=C/c1ccc(O)cc1 [BDMC, Bisdemethoxycurcumin]
